The source of these data is the Kinase Knowledgebase extract (Sharma et al. 2016).

The target of one assay is PIK3CA (UniProt P42336). Description: PI 3-Kinase Inhibition. Particulars: for inhibition: concentration not given here.
In the next assay the test system is PIK3CA (rat). In words: Hexosaminidase Secretion Inhibition (RBL-2H3 cells). As to conditions: rbl2h3.

PIK3CA, sequence (P42336 whole entry, looked up): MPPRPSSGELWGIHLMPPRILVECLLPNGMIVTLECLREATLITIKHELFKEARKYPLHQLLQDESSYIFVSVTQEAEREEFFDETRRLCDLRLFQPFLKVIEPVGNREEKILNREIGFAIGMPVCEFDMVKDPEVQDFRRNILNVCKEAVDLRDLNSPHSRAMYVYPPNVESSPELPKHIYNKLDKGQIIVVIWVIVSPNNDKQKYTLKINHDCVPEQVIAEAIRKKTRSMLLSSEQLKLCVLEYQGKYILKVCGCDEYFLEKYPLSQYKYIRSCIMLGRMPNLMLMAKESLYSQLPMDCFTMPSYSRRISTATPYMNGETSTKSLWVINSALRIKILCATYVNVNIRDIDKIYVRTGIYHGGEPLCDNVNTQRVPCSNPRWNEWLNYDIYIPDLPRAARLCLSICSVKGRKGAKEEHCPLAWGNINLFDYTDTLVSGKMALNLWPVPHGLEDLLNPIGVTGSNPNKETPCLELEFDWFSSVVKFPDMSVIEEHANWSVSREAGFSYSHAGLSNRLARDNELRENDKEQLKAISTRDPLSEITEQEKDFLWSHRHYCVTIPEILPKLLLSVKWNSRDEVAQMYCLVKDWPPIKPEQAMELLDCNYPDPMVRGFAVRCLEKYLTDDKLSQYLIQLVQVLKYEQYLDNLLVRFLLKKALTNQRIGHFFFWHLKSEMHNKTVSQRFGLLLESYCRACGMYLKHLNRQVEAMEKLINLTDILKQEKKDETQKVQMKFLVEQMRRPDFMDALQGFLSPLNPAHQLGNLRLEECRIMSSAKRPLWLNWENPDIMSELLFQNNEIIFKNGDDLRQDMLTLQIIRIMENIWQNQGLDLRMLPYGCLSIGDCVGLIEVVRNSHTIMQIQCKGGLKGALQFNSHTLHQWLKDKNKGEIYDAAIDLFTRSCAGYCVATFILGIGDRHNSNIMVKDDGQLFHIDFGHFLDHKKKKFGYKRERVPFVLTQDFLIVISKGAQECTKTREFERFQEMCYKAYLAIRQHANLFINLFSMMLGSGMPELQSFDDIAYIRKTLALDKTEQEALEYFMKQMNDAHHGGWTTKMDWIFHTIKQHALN

What is called inhibition is how much of the control response was suppressed. Higher therefore signals strong suppression. At PIK3CA, `CCCCCCCCCCCCCCCC(=O)OC[C@@H](COP(=O)(O)O[C@H]1[C@H](O)[C@@H](O)[C@H](O)[C@@H](CBr)[C@H]1O)OC(=O)CCCCCCCCCCCCCCC` had an inhibition of 60%.

By IC50 is commonly meant the concentration that gives 50% inhibition. The low end stands for greater potency in that assay, the high end for weaker potency in that assay. On to `CCCCCCCCCCCCCCCC(=O)OC[C@@H](COP(=O)(O)O[C@H]1[C@H](O)[C@@H](O)[C@H](O)[C@@H](CN)[C@H]1O)OC(=O)CCCCCCCCCCCCCCC`, for which the half-inhibitory concentration (IC50) was found to be 20 µM against PIK3CA and 17 µM in the assay with PIK3CA (rat). For the same compound, the inhibition against PIK3CA was more than 98%. The compound `CCCCCCCCCCCCCCCC(=O)OC[C@@H](COP(=O)(O)O[C@H]1[C@H](O)[C@@H](O)[C@H](O)[C@@H](CI)[C@H]1O)OC(=O)CCCCCCCCCCCCCCC` gave an inhibition against PIK3CA of 60%. Still for that read-out and setting: in the case of `CCCCCCCCCCCCCCCC(=O)OC[C@@H](COP(=O)(O)O[C@H]1[C@H](O)[C@@H](O)[C@H](O)[C@@H](CF)[C@H]1O)OC(=O)CCCCCCCCCCCCCCC` it was 60%. At PIK3CA, `CCCCCCCCCCCCCCCC(=O)OC[C@@H](COP(=O)(O)O[C@H]1[C@H](O)[C@@H](O)[C@H](O)[C@@H](CO)[C@H]1O)OC(=O)CCCCCCCCCCCCCCC` showed a half-maximal inhibitory concentration (IC50) of 35 µM and an inhibition of 85%. In the case of `O=c1cc(N2CCOCC2)oc2c(-c3ccccc3)cccc12`, the half-maximal inhibitory concentration (IC50) with PIK3CA (rat) amounted to 1.8 µM. `CCCCCCCCCCCCCCCC(=O)OC[C@@H](COP(=O)(O)O[C@H]1[C@H](O)[C@@H](O)[C@H](O)[C@@H](CCl)[C@H]1O)OC(=O)CCCCCCCCCCCCCCC` displayed an inhibition against PIK3CA of 60%.
